pEC50, pIC50: −log10 of the molar value. Active and inactive are the calls of the source.

In data set [1] the test system is Rattus norvegicus. Description: Antidiabetic activity in Zucker fa/fa rat assessed as glucose infusion rate at 10 mg/kg/day after 7 days by hyperinsulinemic-euglycemic clamp study. It is filed as functional, organism-based.
The test system of data set [2] is Rattus norvegicus. In words: Antidiabetic activity in Zucker fa/fa rat assessed as HOMA-insulin resistance index at 10 mg/kg/day. The format is functional, organism-based.
Data set [3] relates to Rattus norvegicus. Description: Antidiabetic activity in Zucker fa/fa rat assessed as fasting plasma insulin level at 10 mg/kg/day. It is filed as functional.
In data set [4] the test system is Mus musculus. Description: Increase in plasma HDLC level in human ApoA1 transgenic mouse model at 10 mg/kg/day after 12 days by FPLC method. The format is functional, organism-based.
The target of data set [5] is T1, Peroxisome proliferator-activated receptor alpha (Homo sapiens, UniProt Q07869).
T1 sequence (Q07869 whole entry): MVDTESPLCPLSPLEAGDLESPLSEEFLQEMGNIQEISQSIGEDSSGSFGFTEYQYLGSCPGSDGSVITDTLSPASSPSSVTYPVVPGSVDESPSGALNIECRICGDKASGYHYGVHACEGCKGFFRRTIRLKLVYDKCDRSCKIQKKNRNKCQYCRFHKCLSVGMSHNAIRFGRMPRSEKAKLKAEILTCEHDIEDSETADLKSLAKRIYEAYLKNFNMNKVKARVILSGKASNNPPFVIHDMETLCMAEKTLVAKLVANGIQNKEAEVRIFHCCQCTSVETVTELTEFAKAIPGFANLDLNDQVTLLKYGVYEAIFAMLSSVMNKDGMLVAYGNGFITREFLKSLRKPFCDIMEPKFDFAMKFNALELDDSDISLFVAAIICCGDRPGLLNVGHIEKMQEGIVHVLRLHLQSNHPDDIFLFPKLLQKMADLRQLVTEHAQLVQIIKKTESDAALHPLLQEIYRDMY

Data set [6] deals with T1, Peroxisome proliferator-activated receptor alpha. In words: biochemical.
The nature of data set [7]: Total clearance in rat. It is filed as ADME, organism-based. The settings on record: in vivo.
The nature of data set [8]: Total clearance in cynomolgus monkey. It is filed as ADME, organism-based, Macaca fascicularis. The settings on record: in vivo.
Data set [9] is described as follows: Bioavailability in rat. The format is ADME, organism-based. The note with it: in vivo.
Data set [10] can be described thus: Bioavailability in cynomolgus monkey. The note with it: in vivo. It is filed as ADME, organism-based, Macaca fascicularis.
The nature of data set [11]: Half life in rat. The note with it: in vivo. The format is ADME, organism-based.
Data set [12] is described as follows: Half life in cynomolgus monkey. It is filed as ADME, organism-based, Macaca fascicularis. The note with it: in vivo.
Data set [13] concerns Mus musculus. Description: Antidiabetic activity in overnight fasted db/db mouse diabetic model assessed as reduction in blood glucose level at 0.3 mg/kg/day, po chronically for 12 days challenged with glucose 24 hrs post last dose by OGTT. It is filed as functional, organism-based.
In data set [14] the test system is Mus musculus. In words: Antidiabetic activity in db/db mouse diabetic model assessed as reduction in post prandial blood glucose level at 0.3 mg/kg/day. It is filed as functional, organism-based.
Data set [15] concerns Mus musculus. Description: Antidiabetic activity in overnight fasted db/db mouse diabetic model assessed as reduction in blood glucose level at 3 mg/kg/day, po chronically for 12 days challenged with glucose 24 hrs post last dose by OGTT. The format is functional, organism-based.
The subject of data set [16] is Mus musculus. In words: Antidiabetic activity in db/db mouse diabetic model assessed as reduction in post prandial blood glucose level at 3 mg/kg/day. The format is functional, organism-based.
In data set [17] the test system is Rattus norvegicus. Description: Antidiabetic activity in Zucker fa/fa rat assessed as glucose infusion rate at 1 mg/kg/day after 7 days by hyperinsulinemic-euglycemic clamp study. It is filed as functional, organism-based.
The test system of data set [18] is Rattus norvegicus. Description: Antidiabetic activity in Zucker fa/fa rat assessed as HOMA-insulin resistance index at 1 mg/kg/day. The format is functional, organism-based.
Data set [19] relates to Rattus norvegicus. Description: Antidiabetic activity in Zucker fa/fa rat assessed as fasting plasma insulin level at 1 mg/kg/day. The format is functional.
For data set [20], the system named is Mus musculus. In words: Increase in plasma HDLC level in human ApoA1 transgenic mouse model at 0.3 mg/kg/day after 12 days by FPLC method. It is filed as functional, organism-based.
Data set [21] concerns Mus musculus. Description: Increase in plasma HDLC level in human ApoA1 transgenic mouse model at 3 mg/kg/day after 12 days by FPLC method. The format is functional, organism-based.
Data set [22] concerns the target T2, Peroxisome proliferator-activated receptor delta (Homo sapiens, UniProt Q03181).
T2 sequence (Q03181 whole entry): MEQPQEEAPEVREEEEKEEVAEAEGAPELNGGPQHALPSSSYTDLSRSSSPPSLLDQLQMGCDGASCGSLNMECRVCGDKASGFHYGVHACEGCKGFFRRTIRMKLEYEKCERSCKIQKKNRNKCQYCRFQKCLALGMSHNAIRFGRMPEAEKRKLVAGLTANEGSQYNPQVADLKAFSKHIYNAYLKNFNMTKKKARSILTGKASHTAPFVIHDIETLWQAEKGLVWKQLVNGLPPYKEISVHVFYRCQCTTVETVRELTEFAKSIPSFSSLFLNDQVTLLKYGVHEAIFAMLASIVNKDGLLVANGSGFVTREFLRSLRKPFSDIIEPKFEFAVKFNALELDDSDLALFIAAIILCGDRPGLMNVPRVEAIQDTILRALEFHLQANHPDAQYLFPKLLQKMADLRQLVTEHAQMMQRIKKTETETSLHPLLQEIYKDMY

Data set [23] concerns Rattus norvegicus. In words: Antidiabetic activity in Zucker fa/fa rat assessed as glucose infusion rate at 3 mg/kg/day after 7 days by hyperinsulinemic-euglycemic clamp study. It is filed as functional, organism-based.
The subject of data set [24] is Rattus norvegicus. In words: Antidiabetic activity in Zucker fa/fa rat assessed as HOMA-insulin resistance index at 3 mg/kg/day. It is filed as functional, organism-based.
Data set [25] concerns Mus musculus. Description: Increase in plasma HDLC level in human ApoA1 transgenic mouse model at 300 mg/kg/day after 12 days by FPLC method. It is filed as functional, organism-based.

One may read the pEC50 as the negative decadic logarithm of the EC50, by convention in mol/L. One may read the pIC50 as −log10 of the IC50, conventionally taken in molar units. Turning to `CC(=O)c1ccccc1N[C@@H](Cc1ccc(OCCc2nc(-c3ccccc3)oc2C)cc1)C(=O)O`, the result in [1] and in [2] was Active. Moreover, the Activity in [3] is 776 ng/mL. In addition, the outcome in data set [4] was inactive. In data set [5], this compound gave a pEC50 of 6.55. Moreover, in [6], the pIC50 is 6.20.
The compound `Cc1oc(-c2ccc(C(C)C)cc2)nc1CCOc1ccc(C[C@H](OCC2CC2)C(=O)O)c2sccc12` had a pEC50 in data set [5] of 7.80. The same compound gave a pIC50 in data set [6] of 7.43.
For `CCO[C@@H](Cc1ccc(OCCc2nc(-c3ccc(C(F)(F)F)cc3)oc2C)c2ccccc12)C(=O)O`, in that order: 7.96 and 6.04.
The like results for `CCO[C@@H](Cc1ccc(OCCc2nc(-c3ccc(-c4ccccc4)cc3)oc2C)c2ccsc12)C(=O)O` were, in that order, 6.78 and 6.71.
The clearance is the volume of plasma or blood freed of the substance per unit of time. For orientation: bioavailability means the share of a dose that reaches the circulation, judged against a reference dose that is usually intravenous. What is called half-life is the time needed for the level to fall by half in the phase considered. With `CO[C@@H](Cc1ccc(OCCc2nc(-c3ccccc3)oc2C)c2ccsc12)C(=O)O` [ALEGLITAZAR], the clearance in data set [7] came to 6.2 mL/min/kg; in [8], 1.6 mL/min/kg. The bioavailability in data set [9] is 70%; in data set [10] it was 68%. Further, the half-life was 4 h in data set [11] and 12.9 h in [12]. Further, the result in [13], in data set [14], in data set [15], in data set [16], in data set [17] and in data set [18] was Active. For the same compound, the result in data set [20] and in data set [21] was Active. The Activity in [19] amounted to 773 ng/mL.
With `COc1cc(OC)cc(-c2nc(CCOc3ccc(C[C@H](OC)C(=O)O)c4sccc34)c(C)o2)c1`, the values for the pEC50 in data set [5] and in data set [22] were 7.21 and 6.17, respectively. The negative-log IC50 (pIC50) in [6] was 7.32.
In the case of `CCO[C@@H](Cc1ccc(OCCc2nc(-c3ccccc3)oc2C)c2ccccc12)C(=O)O`, the pEC50 is 7.96 in data set [5] and 6.77 in data set [22]. The pIC50 in data set [6] is 6.70.
In [5], `Cc1oc(-c2ccccc2)nc1CCOc1ccc(C[C@H](OCC(F)(F)F)C(=O)O)c2sccc12` had a negative logarithm of the EC50 (pEC50) of 6.26. The same compound showed a pIC50 in [6] of 7.22.
For `CCCCCCOC(Cc1ccc(OCCc2nc(-c3ccccc3)oc2C)c2ccsc12)C(=O)O` (racemic), in that order: 6.60 and 6.92.
Turning to `Cc1oc(-c2ccccc2)nc1CCOc1ccc(C[C@H](OCC2CC2)C(=O)O)c2sccc12`, the negative-log EC50 (pEC50) in data set [5] was 7.57. Besides, the pIC50 in data set [6] was 7.68.
For `CO[C@@H](Cc1ccc(OCCc2nc(-c3ccc(C(F)(F)F)cc3)oc2C)c2ccsc12)C(=O)O`, in that order: 8.70 and 7.28.
With `CO[C@@H](Cc1ccc(OCCc2nc(-c3ccc(C(C)C)cc3)oc2C)c2ccsc12)C(=O)O`, in [5], the negative-log EC50 (pEC50) is 7.70. In addition, the negative-log IC50 (pIC50) in data set [6] was 7.35.
For `Cc1oc(-c2ccc(-c3ccccc3)cc2)nc1CCOc1ccc(C[C@H](OCC(F)(F)F)C(=O)O)c2ccccc12`, in that order: 6.01 and 6.37.
As to `CN(CCOc1ccc(CC2SC(=O)NC2=O)cc1)c1ccccn1` (stereo not given), the outcome in data set [14], in [16], in [23] and in [24] was Active.
In [5], `CCO[C@@H](Cc1ccc(OCCc2nc(-c3ccc(C(F)(F)F)cc3)oc2C)c2ccsc12)C(=O)O` showed a negative logarithm of the EC50 (pEC50) of 7.05. Further, the negative-log IC50 (pIC50) in [6] was 7.20.
For `CCO[C@@H](Cc1ccc(OCCc2nc(-c3ccccc3)oc2C)c2sccc12)C(=O)O`, in that order: 7.24 and 6.48.
In the case of `CC(C)(Oc1ccc(C(=O)c2ccc(Cl)cc2)cc1)C(=O)O` [FENOFIBRIC ACID], the result in data set [25] was Active. Moreover, the negative-log EC50 (pEC50) in data set [5] is 4.16. In data set [6], this compound showed a negative logarithm of the IC50 (pIC50) of 3.97.
As to `COC(Cc1ccc(OCCc2nc(-c3ccccc3C)oc2C)c2ccccc12)C(=O)O` (racemic), the pEC50 in data set [5] is 6.91. In [6], this compound gave a pIC50 of 6.36.
For `CCCOC(Cc1ccc(OCCc2nc(-c3ccccc3)oc2C)c2ccccc12)C(=O)O` (racemic), in that order: 7.06 and 7.16.
Turning to `CO[C@@H](Cc1ccc(OCCc2nc(-c3ccccc3)oc2C)c2sccc12)C(=O)O`, the pEC50 in data set [5] was 6.80; in data set [22], 6.86. Also, the pIC50 in [6] is 7.55.
In turn, `Cc1oc(-c2ccccc2)nc1CCOc1ccc(CC(OCC(C)C)C(=O)O)c2sccc12` (racemic) had a pEC50 in data set [5] of 7.32. The same compound gave a negative logarithm of the IC50 (pIC50) in [6] of 6.62.

For the origin of these results see ChEMBL document CHEMBL1138459 (Bioorg Med Chem Lett, 2009).
